The values that follow come from patent US11071747B2, “Use of NAD precursors for breast enhancement” (UNIVERSITY OF IOWA RESEARCH FOUNDATION, priority 2016, dated 2021).

Entries after “also recorded” stand apart in the source; their conditions may differ.

In test [1] the test system is mammary gland #4-5 and brown adipose tissue of female rats. Put plainly: NR diet in virgin female rats, mammary gland and brown adipose tissue weight. The test is classed as in vivo. Conditions: NR diet vs normal chow. Here is the method: FIGS. 3A-C. […] Adipose tissues of female rats on normal chow diet (NC) or normal chow with nicotinamide riboside (NR). FIG. 3A. Mammary gland #4-5 were isolated and the weight was recorded. […] FIG. 3B. Images of dissected mammary gland #4-5. FIG. 3C. Weight of brown adipose tissue (BAT). To determine if the effect of NR on females was a mouse-specific phenomenon, additional experiments were performed. Specifically, virgin female rats were fed either NC or NR diets prior to dissection.

The subject of test [2] is mammary glands of lactating mice. Put plainly: NR-supplemented diet in lactating female mice, mammary gland mass and Carmine/Alum staining. Type of test: in vivo, C57BL/6N mice. An excerpt:
FIGS. 1A-B. NR increases the mass of mammary glands of lactating mice. C57BL/6 female mice were fed normal chow (NC) diet and mated to a C57BL/6 male. After gestation and birth, females remained on NC or were on or a diet supplemented with 3 g/kg nicotinamide riboside chloride (NR). At day 14, the females were sacrificed and mammary glands 1-5 were removed for analysis. FIG. 1A. […] FIG. 1B. Mammary glands 4 and 5 isolated from lactating females were stained with Carmine/Alum staining.
The data are based on a trial with female C57BL/6N mice raised in 12 hour light:dark cycles on Teklad 2920X chow (NC). It was asked whether addition of NR chloride (3 g/kg of chow) to the diet of female mice would augment mammary tissue. Accordingly, for 12 weeks prior to mating with a single C57BL/6N male, females were on either NC (n=4) or NC+NR (n=4). Females were maintained on the same diet for 14 days post-partum.

Test [3] deals with mammary glands #4-5 of female mice. Put plainly: Xylene extraction of fat from stained mammary glands of NR-fed female mice. Type of test: in vivo. Conditions: eight month-old female mice, NR diet six weeks. An excerpt:
FIGS. 5A-B. NR-supplemented mammary tissue is partially resistant to xylene extraction. FIG. 5A. […] Eight month-old female mice were on NC or NR diet for six weeks. Mammary glands #4-5 were isolated, fixed, stained with Carmine/Alum stain and xylene was use to extract fat. […] FIG. 5B. NR-fed rats have mammary gland with a different fat composition. […] Eight month-old female mice were on NC or NR diet for six weeks. Mammary glands #4-5 were isolated, fixed, stained with Carmine/Alum stain and subjected to an extraction with xylene to remove fat.

For test [4], the system named is mammary glands of female rodents. Put plainly: NR-supplemented diet in adult female rodents, overall findings. The test is classed as in vivo, mice and rats. Here is the method: As described herein, a series of experiments were performed to examine the effect of nicotinamide riboside (NR) on mammary tissue. It was determined that the provision of NR in the diet of female mice and female rats promoted mammary development (e.g., increases mammary gland tissue weight). […] These experiments show the unanticipated and potentially value effect of supplementing females with NR or other NAD precursors.

The subject of a further test is mammary glands #4 and 5. Put plainly: NR diet for six weeks in eight month-old female and male mice, mammary gland weight. Type of test: in vivo. Conditions: NR diet six weeks vs NC. Here is the method: FIG. 4. NR increases mammary gland tissue weight of female but not male mice. Eight month-old mice were put on NC or NR diet for six weeks. Mammary glands #4 and 5 were measured and plotted by normalizing to the body weight of each mouse. […] In FIG. 4, eight month-old mice were put on normal chow (NC) or NC+NR (NR) diets for six weeks. Mammary glands #4 and 5 were measured and plotted by normalizing to the body weight of each mouse.

For the next test, the system named is mammary gland of rats. Put plainly: Xylene clearing of mammary adipose tissue of NR-fed rats. The test is classed as in vivo. An excerpt: FIGS. 5A-B. NR-supplemented mammary tissue is partially resistant to xylene extraction. FIG. 5A. […] Eight month-old female mice were on NC or NR diet for six weeks. Mammary glands #4-5 were isolated, fixed, stained with Carmine/Alum stain and xylene was use to extract fat. […] FIG. 5B. NR-fed rats have mammary gland with a different fat composition.

The subject of test [5] is mammary glands of virgin female mice. Put plainly: NR oral supplementation in virgin female mice, mammary gland development. Type of test: in vivo. An excerpt:
FIGS. 2A-E. NR oral supplementation promotes mammary gland development in virgin female mice (non-lactating females). FIG. 2A. […] FIG. 2B. Carmine/Alum staining of mammary glands. FIG. 2C. Quantification of mammary gland ductal length can be assessed by taking the measurement of the left (L1), right (L2), top (L3) and bottom (L4) branchings expressed in cm. FIG. 2D. […] FIG. 2E.

With `NC(=O)c1ccc[n+]([C@@H]2O[C@H](CO)[C@@H](O)[C@H]2O)c1` [NR, nicotinamide riboside], the “weight of brown adipose tissue (BAT)” value in test [1] (female rats) is “increases the mass of mammary gland #4 and #5 and brown adipose tissue (BAT)”. For the same compound, the “weight of mammary gland #4-5” value in test [1] (virgin female rats) is listed as “increased the size of mammary tissues in rats; also recorded: more mammary gland tissue”. Besides, in test [2] (lactating C57BL/6 females, diet with 3 g/kg NR chloride vs normal chow, day 14 post-partum, mammary glands 1-5), the “mass of mammary glands” value is “more mammary tissue than those on normal chow; also recorded: more massive mammary glands”. The “lactating mammary tissue (Carmine/Alum staining)” value in test [2] (lactating females, mammary glands 4 and 5, NR diet vs normal chow) is “more lactating mammary tissue”. Moreover, in test [3], the “fat composition of the mammary gland” value was “changes the fat composition of the mammary gland”. In addition, the “fat remaining in mammary glands after xylene extraction” value in test [3] (1 week of incubation in xylene) is on record as “more fat remaining”. For the same compound, the “development of beige or brown fat” value in test [4] (NR supplementation, female rodents) was “leads to development of beige or brown fat”. The “fat pad formation, epithelial branching, alveolar and lobule development of mammary glands” value in test [4] (adult females, virginal or pregnant, diet supplemented with NR) is “increase in fat pad formation, epithelial branching, alveolar and lobule development”. For the same compound, the “mammary gland #4 and 5 weight normalized to body weight” value in the test on mammary glands #4 and 5 (eight month-old female mice) was “more mammary gland tissue in comparison to the NC group”; in the test with mammary glands #4 and 5 (eight month-old male mice), “no significant increase in mammary tissue weight”. Further, the “clearing of mammary adipose tissue by xylene” value in the test with mammary gland of rats is “poorly cleared by xylene”. Moreover, the “mammary gland with beige fat” value in test [5] (twelve week-old virgin female mice, NR supplementation for two weeks) is reported as “more mammary gland with beige fat”. The “surface area of mammary gland #4-5” value in test [5] (virgin female mice, NR oral supplementation) was “increases the surface area of mammary gland #4-5”. The “mammary gland ductal length measurements” value in test [5] (virgin female mice, NR oral supplementation, L1-L4 branchings) is reported as “increases ductal length measurements”. The “subcutaneous adipose tissue and epithelial duct branching” value in test [5] (virgin mice, not exposed to males) is “significant increase of the subcutaneous adipose tissue and epithelial duct branching”.
